# Reference: patent US12644133B2, “Methods and compositions to increase somatic cell nuclear transfer (SCNT) efficiency by removing histone H3-lysine trimethylation” (The Children's Medical Center Corporation, priority 2014, dated 2026)
# Experiments:
# H3K9me3 = assay: Immunostaining of H3K9me3 in SCNT embryos; assay type: cell-based, mouse; conditions: mRNA injected at 5 hpa; cumulus donor cells
# Description: Somatic cell nuclear transfer was carried out as described previously (Matoba et al., 2011). Briefly, recipient MII oocytes were collected from superovulated adult BDF1 females by brief treatment with 300 U/ml bovine testicular hyaluronidase (Calbiochem). Isolated MII oocytes were enucleated in Hepes-buffered KSOM medium containing 7.5 μg/ml of cytochalasin B (Calbiochem #250233). The nuclei of donor cumulus cells or Sertoli cells were injected into the enucleated oocytes using a Piezo-driven micromanipulator (Primetech #PMM-150FU). MEF cells were fused with enucleated oocytes by inactivated Sendai virus envelope (HVJ-E; Ishihara Sangyo, Japan). After 1 h incubation in KSOM, reconstructed SCNT oocytes were activated by incubation in Ca-free KSOM containing 5 μg/ml cytochalasin B for 1 h and further cultured in KSOM with cytochalasin B for 4 h. Activated SCNT embryos were washed 5 h after the onset of SrCl2 treatment (hours post activation, hpa) and cultured in KSOM in a humidified atmosphere of 5% CO2 at 37.8° C. In some experiments, SCNT embryos were injected with ˜10 pl of water (control), 1800 ng/μl wild-type or mutant (H189A) Kdm4d mRNA at 5-6 hpa by using a Piezo-driven micromanipulator (Primetech). […] Preimplantation developmental rates were statistically analyzed by Student's T-test. […]
# [1] = test system: reprogramming resistant regions (RRRs); assay: RNA-seq analysis of 2-cell SCNT embryos; assay type: cell-based, mouse
# Description: The embryos were directly lysed and used for cDNA synthesis using SMARTer Ultra Low Input RNA cDNA preparation kit (Clontech). After amplification, the cDNA samples were fragmented using Covaris sonicator (Covaris). Sequencing libraries were made with the fragmented DNA using NEBNext Ultra DNA Library Prep Kit for Illumina according to manufacturer's instruction (New England Biolabs). Single end 50 bp sequencing was performed on a HiSeq 2500 sequencer (Illumina). Sequencing reads were mapped to the mouse genome (mm9) with NovoalignV3.02.00. All programs were performed with default settings (unless otherwise specified). Uniquely mapped reads (about 70% of total reads) were subsequently assembled into transcripts guided by the reference annotation (UCSC gene models) with Cufflinks v2.0.2. Expression level of each gene was quantified with normalized FPKM (fragments per kilobase of exon per million mapped fragments). […] Statistical analyses were implemented with R (world wide web at www.r-project.org/). Independent 2-group Wilcoxon rank sum test were used to compare distributions using the wilcox.test function in R. Pearson's r coefficient was calculated using the cor function with default parameters. The hierarchical clustering analysis of the global gene expression pattern in different samples was carried out using hearmap.2 function (gplots package) in R.
# A sliding window (size 100 kb, step size 20 kb) was used to assess the genome-wide expression level of 1-cell and 2-cell embryos. For each window, the expression level was quantified with normalized RPM (reads per millions of uniquely mapped reads). […] These activated regions were classed into three groups based on their expression differences in SCNT and IVF 2-cell embryos.
substance,measurement,setting,value
"Kdm4d WT mRNA: in vitro transcribed full length mouse Kdm4d mRNA, encoding an H3K9me3-specific histone demethylase",reduction of H3K9me3 levels in SCNT embryos (in words),H3K9me3,greatly reduced H3K9me3 levels
same,repression of major satellite repeats in 2-cell SCNT embryos (in words),[1],completely restored
same,% of the 222 RRRs activated (FC >2) compared to control SCNT embryos,[1]; 2-cell SCNT embryos,83%
same,SCNT-induced repression of class III retrotransposon elements such as MERVL (in words),[1]; 2-cell SCNT embryos,partly relieved
same,number of the 222 RRRs activated (FC >2),[1]; 2-cell SCNT embryos,184
same,total number of differentially expressed genes (FC >3) between SCNT and IVF 2-cell embryos,[1]; 1212 without injection,475
